Measured values taken from US20240246905A1 (University of Leicester, priority 2021, published 2024).
Values after ≈ are worked out from the molar mass of the structure shown.

Assays:
MRSA 252 [1] = experiment: Resistance testing by serial passaging; format: cell-based, S. aureus; details: 18 serial passage cycles
Protocol: Next a serial passage study was undertaken in order to elucidate the speed at which target bacteria might either evolve resistance or select for persister cells within that population following exposure to compound 36.
For resistance development by serial passaging, 5 μL of overnight cultured MRSA 252 cells were added to individual wells in a 96-well plate containing 195 μL of TSB supplemented with a range of antibiotic concentrations and incubated at 37° C. for 18 hours. Ofloxacin served as a control. Wells where bacterial growth was visible after 18 hours were plated on TSA plates and incubated at 37° C. for a further 18 hours. Single colonies obtained from the overnight cultured bacteria were then inoculated into fresh TSB medium, incubated at 37° C. for 18 hours before being used in the next cycle of the resistance testing. This process continued for 18 cycles.

[2] = test system: Pseudomonas aeruginosa PA01; experiment: Disc diffusion (Kirby-Bauer), zone of inhibition; format: cell-based; details: 500 μg/mL, '/' = no zone
In short: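 Kirby-Bauer per CLSI 2017: 1 in 200 dilutions of overnight cultures (LB for Gram-negatives, TSB for Gram-positives) spread on Mueller-Hinton agar. Discs loaded with 50 μL antibiotic were added and plates incubated 24 h at 37 °C. Zone of inhibition recorded.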

MRSA 252 [3] = experiment: LIVE/DEAD assay (SYTO 9 / propidium iodide); format: cell-based, S. aureus; details: 4×MIC
Protocol: To attempt to further confirm whether the membrane was indeed targeted by compound 41, a LIVE/DEAD assay was performed, in which MRSA 252 was inoculated with two dyes: SYTO 9 and propidium iodide (PI). Cells with compromised membranes will stain fluorescent red whilst those cells with intact membranes will stain fluorescent green. […] Contrary to this, cells with no antibiotic present stained fluorescent green (FIG. 7).
The LIVE/DEAD BacLight™ bacterial viability kit was purchased from Thermo Fischer Scientific and the assay was performed per manufactures instructions. The kit provides two nucleic acid stains; SYTO-9 and propidium iodide (PI), which allows live bacteria with intact membranes to be distinguished from bacteria with compromised membranes. Single colonies of MRSA 252 were added to individual wells containing Melinex® films and 3 mL TSB and incubated at 37° C. for 18 hours with minimal agitation (70 rpm). The growth media was then exposed to the antibiotics at various concentrations and incubated for 10 hours. The medium was then discarded in each well, washed with PBS before 200 μL of a solution containing both nucleic acid stains was added (50 μL of each component in 10 mL PBS) and left to incubate in the dark for 15 minutes at room temperature. […]

S. aureus SH1000 cells [4] = experiment: DiSC3(5) membrane potential assay; format: cell-based; details: 16 μg/mL, 180 minutes
Protocol: We next looked to further confirm the cell membrane as being the target site of action for our compounds, by undertaking a membrane depolarization assay using the voltage sensitive dye, 3,3′-dipropylthiacarbocyanine iodide (DiSC3(5)).
[…] Cultures of SH1000 were grown to OD600 of 0.2 before being incubated further with 0.1 M KCl and 2 μM DiSC3(5) for 30 minutes at 37° C. […] Subsequently, the cells were centrifuged and 1 mL of supernatant mixed with 1 mL DMSO; the centrifuged pellet was lysed in DMSO for 10 minutes and added to equal volumes of HEPES and glucose buffer. Extracellular and intracellular fluorescence was measured on a LS 45 luminescence spectrometer (PerkinElmer) at an excitation and emission of 622 nm and 670 nm respectively. Consequently, the membrane potential was calculated using the Nernst equation and expressed as a percentage of the initial value.

S. aureus SH1000 cells [5] = experiment: Potassium leakage detection; format: cell-based; details: 60 minutes, MRSA cells
Protocol: The potassium leakage of S. aureus SH1000 cells exposed to compounds was conducted as per previously published methods. Briefly, compounds were incubated with mid-exponential-phase S. aureus SH1000 cells in HEPES buffer (˜10^8 CFU/ml) for 60 minutes. Cells were then removed by centrifugation, and the supernatant was assayed for K^+ efflux by using a Perkin-Elmer 11001B atomic absorption instrument in flame emission mode (wavelength, 766.5 nm; slit, 0.7 nm high; air-acetylene flame). Prior to measurements, the instrument was calibrated using analytical grade potassium standards.

E. coli strain DH5a = experiment: MIC with and without outer membrane permeabilisation; format: cell-based; details: Escherichia coli
Protocol: Antibiotic MIC's were determined by a broth micro-dilution method according to Clinical Standard Laboratory Institute (CSLI) Guidelines (2017). Briefly, 96-well microplates, each containing 195 μL of the 1:2 dilution antibiotic in TSB, were inoculated with 5 μL of overnight cultured bacteria, diluted to give a starting bacterial concentration of 5×10^5 CFU/mL. The optical density of each well inoculated was recorded every 12 minutes over an 18 hour period at 37° C. The data from this was plotted in OriginPro8 (OriginLab) and sigmoidal curves fitted using the dose response function. Fitted values for each curve were used to calculate the MIC.

MRSA 252 [6] = experiment: MIC before and after cysteine addition; format: cell-based, S. aureus; details: up to 24 hours
Description: It is well known that compounds bearing an isocyanide group are usually highly reactive, capable of reacting with electrophiles, nucleophiles and radicals.^(30) As a result, it was important to identify any stability issues which might be encountered by the lead compounds, both in storage and in the presence of glutathione and cysteine. […] Another common feature of the lead compounds is the vinyl fragment. It was hypothesized that the presence of glutathione and cysteine found in eukaryotic cells could potentially interact with the electrophilic alkene group in the compounds, thus shutting down their antibiotic activity. To probe this potentially detrimental in vivo process, compound 39 was subjected to glutathione for up to 24 hours whilst compound 41 was added to cysteine for the same length of time.

Row | SMILES | change of MIC after serial passage (in words) (MRSA 252 [1]) | zone of inhibition at 500 µg/mL [2] [mm] | membrane integrity (LIVE/DEAD stain) (MRSA 252 [3]) | reduction in the proton motive force (S. aureus SH1000 cells [4]) [%] | dissipation of cellular K+ ions (S. aureus SH1000 cells [5]) [%] | MIC (E. coli strain DH5a; not permeabilised) [µg/mL] | MIC (E. coli strain DH5a; outer membrane permeabilised with polymixin B nanopeptides) [µg/mL] | MIC in the presence of cysteine (MRSA 252 [6])
1 | [C-]#[N+]/C=C/c1ccc(O)cc1/C=C/c1ccccc1 [Compound 36, 4-((E Z)-2-Isocyanovinyl)-3-((E)-styryl)phenol] | no increase in the MIC |  |  |  |  |  |  | 
2 | [C-]#[N+]/C=C/c1ccc(NC(C)=O)cc1/C=C/c1ccccc1 [Compound 41, N-(4-((E)-2-Isocyanovinyl)-3-((E)-styryl)phenyl)acetamide] |  | 16 | significant membrane damage | 70 | 50 | 280 (≈ 971 µM) | 16 (≈ 55.5 µM) | remained unaffected
